Literature values in paper PMC9147442, “Design, Synthesis, and Evaluation of Linker-Optimised PSMA-Targeting Radioligands” (Pharmaceutics, 2022).

Set-up: method as in PMID 26985056
Settings: radiotherapy

- renal excretion: ~ 50 % IA
Substance: [^177Lu]Lu-PSMA-617
